Data: US20230028658A1, “EXPANDED DOSAGE REGIMENS FOR INTEGRIN INHIBITORS” (Pliant Therapeutics, Inc., priority 2021, published 2023)
Like-named read-outs stand apart in the source and are kept apart here.

Key:
[1] = Plasma PK, Example B15 Part 1; format: in vivo; conditions: human, initial results; for Cmax / AUC(0-t): Day 7, geometric mean; for AUC(0-t): read-out: AUC0-24, ng × h/mL; for Tmax: Day 7, median
Protocol: (§1) This study was designed as a randomized, double-blind, placebo-controlled study in 48 healthy participants conducted in 2 parts. Part 1 has completed clinical conduct, and Part 2 is ongoing. In Part 1, 24 participants were randomized 1:1:1 to receive Compound 5 80 mg QD, Compound 5 160 mg QD, or placebo QD. A safety review committee reviewed the safety and PK data from Part 1 and recommended doses for Part 2. In Part 2, 24 participants were randomized 1:1:1 to receive Compound 5 320 mg QD (Compound 5 in the morning and matched placebo in the afternoon), Compound 5 160 mg twice daily (BID), or placebo BID. In both parts, samples of BALF were collected from the middle lobe or lingula via bronchoscopy prior to dosing (Day −1) and at 6 and 24 hours post morning dose on Day 7. BALF samples were assessed for TGF-β receptor kinase activity (pSMAD2/SMAD2) in pelleted cells (primarily alveolar macrophages) and additional cell material was used to measure TGF-β signaling pathway-related gene expression levels. Plasma samples were collected to measure Compound 5 concentrations and determine protein binding. Safety was monitored via open-ended AE inquiry and clinical chemistry, hematology, vital sign, and 12-lead ECG parameters.

[2] = tested on: human bronchial epithelial cells; experiment: LAP adhesion binding assay, normal human bronchial epithelial cells (xCELLigence cell index); format: cell-based; conditions: FIG. 3A; cell index (electrical impedance)
Protocol: Two latency associated peptide (LAP) adhesion binding assays were devised using primary human lung cells, including normal (healthy) human bronchial epithelial cells and human lung fibroblasts (healthy and IPF).
Human bronchial epithelial cells are known to express αvβ6 integrin in culture. Human bronchial epithelial cells were prepared for the assay by dissociation with trypsin/EDTA and were then seeded at 20,000 cells per well on 96 well plates (ACEA Bioscience E-plate View, Acea Biosciences; San Diego, Calif.) previously coated with 5 μg/ml of recombinant human LAP (R&D Systems; Minneapolis, Minn.) and blocked with 4% bovine serum albumin. Cell index (electrical impedance) was measured to assess cell attachment/spreading every 3 minutes for 24 hours at 37° C./5% CO2 using the xCELLigence RTCA MP Instrument (Acea Biosciences; San Diego, Calif.).

[3] = Binding to plasma proteins, equilibrium dialysis; format: in vitro ADME; conditions: human, plasma of dosed study participants, oral, participants' plasma Day 7
Protocol: Binding to plasma proteins was determined in participants' plasma (Day 7) using a qualified equilibrium dialysis protocol. The mean % unbound was 0.292%±0.067%, and ranged from 0.182% to 0.38% across the 20-mg cohort participants. The mean % unbound was 0.318%+0.065% and ranged from 0.22% to 0.376% across the 40-mg cohort participants. Due to the unexpected amount of plasma protein binding in these participants, it was decided to examine higher doses of the dual […] inhibitor (Compound 5) to determine whether such higher doses would compensate for the high protein binding and provide greater amounts of free drug.

[4] = tested on: normal bronchial epithelial cell; experiment: normal bronchial epithelial cell adhesion to LAP (FIG. 3A); format: cell-based
[5] = tested on: pSMAD2/SMAD2; experiment: pSMAD2/SMAD2 in BALF cells of healthy participants, Example B15 Part 1; format: in vivo, human; conditions: preliminary analysis
Source text: The primary objective of this study was to assess the pharmacodynamic changes in biomarkers of TGF-β activation in alveolar macrophages from bronchoalveolar lavage fluid (BALF) following dosing of Compound 5 for 7 days. Secondary objectives of this study were to assess the safety and tolerability of Compound 5 following dosing for 7 days, the plasma PK of Compound 5, and the PK/PD (BALF biomarkers) relationship.
as §1

[6] = Single dose pharmacokinetics (SAD), Example B14; format: in vivo, human; conditions: for half-life / Cmax / AUC(0-t) / Tmax: human, oral; for half-life: plasma total drug; for half-life / Cmax / AUC(0-t): geometric mean; for Cmax / AUC(0-t) / Tmax: plasma; for AUC(0-t): read-out: AUC0-24, ng × h/mL; for Tmax: median
Source text: Accordingly, a study was designed to assess the PK of Compound 5 after a single dose and following a 6-day course of doses, at levels exceeding the dosages used in preceding Examples B12 and B13. This study was designed to assess at these higher doses aspects of the single-dose and steady-state pharmacokinetics of Compound 5.
This study was a single-center, randomized, double-blind, ascending dose, placebo-controlled study in healthy participants. Each cohort included 10 participants (8 active, 2 placebo). Study participants received single ascending doses (SAD) of Compound 5 of 120, 160, 240, 320, 480, and 640 mg and multiple ascending doses (MAD) of Compound 5 of 80, 120, 160, 240, and 320 mg. Two cohorts of participants at 160 mg were studied in the MAD phase of the study.
Participants received single Compound 5 doses of 120, 160, 240, 320, 480, and 640 mg. A total of 60 participants were enrolled across the dosing groups, with 48 participants who received Compound 5 available for PK analyses. Despite the substantially higher dosages, PK parameters in the dosing groups were consistent with those observed at lower doses in Example B12.

With `COCCN(CCCCc1ccc2c(n1)NCCC2)CC[C@H](Nc1ncnc2ccccc12)C(=O)O` [Compound 5, (S)-4-((2-methoxyethyl) (4-(5,6,7,8-tetrahydro-1,8-naphthyridin-2-yl)butyl)amino)-2-(quinazolin-4-ylamino) butanoic acid] the Cmax ([1]; 80 mg QD) was 1.51 µg/mL, the AUC(0-t) ([1]; 80 mg QD) was 25.4 µg·h/mL and the Tmax ([1]; 80 mg QD) was 6 h. For the same molecule, the Cmax ([1]; 160 mg QD) was 2.99 µg/mL, the AUC(0-t) ([1]; 160 mg QD) was 49.9 µg·h/mL and the Tmax ([1]; 160 mg QD) was 5 h. For the same molecule, the “inhibition of normal bronchial epithelial cell adhesion to LAP” value [2] was “substantially inhibited”, the fraction unbound ([3]; 20 mg, 20-mg cohort, read-out: % unbound, range across participants) was 0.00182 to 0.0038 and the fraction unbound ([3]; 20 mg, 20-mg cohort, read-out: mean % unbound) was 0.00292. For the same molecule, the fraction unbound ([3]; 40 mg, 40-mg cohort, read-out: % unbound, range across participants) was 0.0022 to 0.00376, the fraction unbound ([3]; 40 mg, 40-mg cohort, read-out: mean % unbound) was 0.00318 and the “normal bronchial epithelial cell adhesion to LAP” value [4] was “substantially inhibited”. For the same molecule, the “reduction in pSMAD2 levels (pSMAD2/SMAD2 ratio)” value (“reduction … (pSMAD2/SMAD2 ratio)” for short) ([5]; 80 mg QD 7 days, 6 hours post dose Day 7) was 41.2%, the “reduction … (pSMAD2/SMAD2 ratio)” value ([5]; 80 mg QD 7 days, 24 hours post dose Day 7) was 36.6% and the “reduction … (pSMAD2/SMAD2 ratio)” value ([5]; 160 mg QD 7 days, 6 hours post dose Day 7) was 57.8%. For the same molecule, the “reduction … (pSMAD2/SMAD2 ratio)” value ([5]; 160 mg QD 7 days, 24 hours post dose Day 7) was 53.2%, the half-life ([6]; single dose 120 mg) was 37 h and the half-life ([6]; single dose 160 mg) was 36.5 h. It also gave a half-life ([6]; single dose 240 mg) of 46 h, a half-life ([6]; single dose 320 mg) of 40.7 h and a half-life ([6]; single dose 480 mg) of 43.7 h. For the same molecule, the half-life ([6]; single dose 640 mg) was 42.3 h, the Cmax ([6]; single dose 120 mg) was 2.71 µg/mL and the AUC(0-t) ([6]; single dose 120 mg) was 27.4 µg·h/mL. The Tmax ([6]; single dose 120 mg) was 4 h, the Cmax ([6]; single dose 160 mg) was 2.48 µg/mL and the AUC(0-t) ([6]; single dose 160 mg) was 28.5 µg·h/mL. The Tmax ([6]; single dose 160 mg) was 1.95 h, the Cmax ([6]; single dose 240 mg) was 4.39 µg/mL and the AUC(0-t) ([6]; single dose 240 mg) was 48.1 µg·h/mL. For the same molecule, the Tmax ([6]; single dose 240 mg) was 3.5 h, the Cmax ([6]; single dose 320 mg) was 6.39 µg/mL and the AUC(0-t) ([6]; single dose 320 mg) was 71.2 µg·h/mL. For the same molecule, the Tmax ([6]; single dose 320 mg) was 4 h, the Cmax ([6]; single dose 480 mg) was 5.08 µg/mL and the AUC(0-t) ([6]; single dose 480 mg) was 57.3 µg·h/mL. For the same molecule, the Tmax ([6]; single dose 480 mg) was 3 h, the Cmax ([6]; single dose 640 mg) was 6.91 µg/mL and the AUC(0-t) ([6]; single dose 640 mg) was 88.3 µg·h/mL. The Tmax ([6]; single dose 640 mg) was 3.5 h, the “dose proportionality of total and peak exposures” value ([6]; single doses over the range of 120 to 640 mg) was “slightly less than dose-proportional manner” and the “dose proportionality of total (AUC0-24) and peak (Cmax) exposure” value ([6]; single oral doses of 120 to 320 mg) was “increased in a dose-proportional manner”.
